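48-hour exposure; five concentrations; linearly interpolated endpoints. GI50 is the concentration that inhibits growth by half.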 Activity calls are given as the source filed them. Rule as the data show it: active = GI50 up to about 1.1 µM and inactive = higher.
Experiments:
Experiment in all cases: inhibition of tumour cell growth, NCI panel, 48 h
MDA-MB-231 = system: MDA-MB-231
LOX IMVI = system: LOX IMVI
NCI-H23 = system: NCI-H23
ACHN = system: ACHN
NCI-H522 = system: NCI-H522
Malme-3M = system: Malme-3M
RXF 393 = system: RXF 393
CCRF-CEM = system: CCRF-CEM
M14 = system: M14
HCT-15 = system: HCT-15
BT-549 = system: BT-549
U-251 = system: U-251
MDA-MB-435 = system: MDA-MB-435
OVCAR-3 = system: OVCAR-3
786-0 = system: 786-0
SK-MEL-28 = system: SK-MEL-28
HOP-92 = system: HOP-92
HT-29 = system: HT-29
OVCAR-8 = system: OVCAR-8
Hs-578T = system: Hs-578T
CAKI-1 = system: CAKI-1
NCI-H226 = system: NCI-H226
K562 = system: K562
SK-MEL-2 = system: SK-MEL-2
HL-60 = system: HL-60
OVCAR-4 = system: OVCAR-4
PC-3 = system: PC-3
SN12C = system: SN12C
UACC-62 = system: UACC-62
MOLT-4 = system: MOLT-4
HOP-62 = system: HOP-62
SK-OV-3 = system: SK-OV-3
KM12 = system: KM12
SK-MEL-5 = system: SK-MEL-5
NCI-H460 = system: NCI-H460
NCI/ADR-RES = system: NCI/ADR-RES
DU-145 = system: DU-145
HCT-116 = system: HCT-116
SNB-75 = system: SNB-75
T47D = system: T47D
IGROV-1 = system: IGROV-1
EKVX = system: EKVX
A549 = system: A549
RPMI-8226 = system: RPMI-8226
OVCAR-5 = system: OVCAR-5
A498 = system: A498
TK-10 = system: TK-10
SW-620 = system: SW-620
MCF7 = system: MCF7
SNB-19 = system: SNB-19
SF-268 = system: SF-268
COLO 205 = system: COLO 205
SF-295 = system: SF-295
UO-31 = system: UO-31
HCC 2998 = system: HCC 2998
UACC-257 = system: UACC-257
MDA-N = system: MDA-N
SR = system: SR
SF-539 = system: SF-539

Measured: GI50

O=S(=O)(Nc1nccs1)c1ccc([As](=O)(O)O)cc1
inactive: MDA-MB-231 > 100 µM | LOX IMVI > 100 µM | NCI-H23 > 100 µM | ACHN > 100 µM | NCI-H522 > 100 µM | Malme-3M > 100 µM | RXF 393 > 100 µM | CCRF-CEM > 100 µM | M14 > 100 µM | BT-549 > 100 µM | U-251 > 100 µM | MDA-MB-435 > 100 µM | OVCAR-3 > 100 µM | 786-0 > 100 µM | SK-MEL-28 > 100 µM | HOP-92 > 100 µM | HT-29 > 100 µM | OVCAR-8 > 100 µM | Hs-578T > 100 µM | CAKI-1 > 100 µM | NCI-H226 > 100 µM | K562 > 100 µM | SK-MEL-2 > 100 µM | HL-60 > 100 µM | OVCAR-4 > 100 µM | PC-3 > 100 µM | SN12C > 100 µM | UACC-62 > 100 µM | MOLT-4 > 100 µM | HOP-62 > 100 µM | SK-OV-3 > 100 µM | KM12 > 100 µM | SK-MEL-5 > 100 µM | NCI-H460 > 100 µM | NCI/ADR-RES > 100 µM | DU-145 > 100 µM | HCT-116 > 100 µM | SNB-75 > 100 µM | T47D > 100 µM | IGROV-1 > 100 µM | EKVX > 100 µM | A549 > 100 µM | RPMI-8226 > 100 µM | OVCAR-5 > 100 µM | A498 > 100 µM | TK-10 > 100 µM | SW-620 > 100 µM | MCF7 > 100 µM | SNB-19 > 100 µM | SF-268 > 100 µM | COLO 205 > 100 µM | SF-295 > 100 µM | UO-31 > 100 µM
> 100 µM: HCT-15

Cc1ccc(C)n2c1nc1ccc3ccccc3c12
> 100 µM: HCT-15
inactive: HCC 2998 > 100 µM | NCI-H23 > 100 µM | ACHN > 100 µM | Malme-3M > 100 µM | RXF 393 > 100 µM | CCRF-CEM > 100 µM | M14 > 100 µM | BT-549 > 100 µM | UACC-257 > 100 µM | U-251 > 100 µM | MDA-MB-435 > 100 µM | OVCAR-3 > 100 µM | 786-0 > 100 µM | MDA-N > 100 µM | SK-MEL-28 > 100 µM | HOP-92 40.6 µM | HT-29 > 100 µM | OVCAR-8 > 100 µM | Hs-578T 49.9 µM | NCI-H226 > 100 µM | K562 > 100 µM | SR > 100 µM | HL-60 > 100 µM | PC-3 67.9 µM | SN12C > 100 µM | UACC-62 53.2 µM | MOLT-4 > 100 µM | HOP-62 > 100 µM | SK-OV-3 > 100 µM | KM12 > 100 µM | SK-MEL-5 50.2 µM | NCI-H460 > 100 µM | NCI/ADR-RES > 100 µM | DU-145 > 100 µM | SNB-75 17.3 µM | T47D 45 µM | IGROV-1 > 100 µM | EKVX 27.9 µM | A549 > 100 µM | RPMI-8226 > 100 µM | OVCAR-5 > 100 µM | TK-10 > 100 µM | SW-620 > 100 µM | MCF7 26.8 µM | SNB-19 > 100 µM | SF-268 > 100 µM | COLO 205 > 100 µM | SF-295 > 100 µM | UO-31 61 µM | SF-539 > 100 µM

Nc1nc(-c2ccccc2)nc2c1[n+]([O-])c1ccccc1[n+]2[O-]
inactive: MDA-MB-231 > 100 µM | HCC 2998 > 100 µM | LOX IMVI > 100 µM | NCI-H23 > 100 µM | ACHN > 100 µM | NCI-H522 > 100 µM | Malme-3M > 100 µM | RXF 393 > 100 µM | CCRF-CEM > 100 µM | M14 > 100 µM | BT-549 > 100 µM | UACC-257 > 100 µM | U-251 > 100 µM | MDA-MB-435 > 100 µM | OVCAR-3 > 100 µM | 786-0 > 100 µM | SK-MEL-28 > 100 µM | HT-29 > 100 µM | OVCAR-8 > 100 µM | Hs-578T > 100 µM | CAKI-1 > 100 µM | NCI-H226 > 100 µM | K562 > 100 µM | SK-MEL-2 > 100 µM | HL-60 > 100 µM | PC-3 > 100 µM | SN12C > 100 µM | UACC-62 > 100 µM | HOP-62 > 100 µM | SK-OV-3 > 100 µM | KM12 > 100 µM | SK-MEL-5 83.4 µM | NCI-H460 > 100 µM | NCI/ADR-RES > 100 µM | DU-145 > 100 µM | HCT-116 > 100 µM | T47D > 100 µM | IGROV-1 > 100 µM | EKVX > 100 µM | A549 > 100 µM | RPMI-8226 > 100 µM | OVCAR-5 > 100 µM | A498 > 100 µM | TK-10 > 100 µM | SW-620 > 100 µM | MCF7 > 100 µM | SNB-19 > 100 µM | SF-268 > 100 µM | COLO 205 > 100 µM | SF-295 > 100 µM | UO-31 > 100 µM | SF-539 > 100 µM
> 100 µM: HCT-15
